Laboratory results from US20250282768A1 (Janssen Pharmaceutica NV, priority 2022, published 2025).

What follows are molecules tested on p-IKKa levels in L363 (NIK translocated multiple myeloma) cells (assay: Assay 2: Effect of compounds on p-IKKa levels in L363 (NIK translocated multiple myeloma) cells). Settings: Homo sapiens, L-363, 6 h, read-out: Assay 2 IC50 (nM), p-IKKa (Ser 176/180) in BAFF stimulated L363 cells with MG132, 6 h; average if tested more than once.
Type: cell-based
Summary of the method: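 L363 cells incubated overnight ± 250 ng/ml BAFF, then 6 h at 37 °C with compound (0.3% DMSO) ± 10 μM MG132. Lysates assayed for p-IKKa (Ser176/180) by AlphaLISA SureFire. IC50 from sigmoidal fit of % inhibition normalized to BAFF/MG132-stimulated and unstimulated controls.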
Work on `C[C@@H](Nc1nccc(-c2cccc(-c3cc([C@]4(O)CCN(C)C4=O)on3)n2)n1)C(=O)N1CCC(F)(F)C1` [Example 173, (R)-3-(3-(6-(2-(((R)-1-(3,3-Difluoropyrrolidin-1-yl)-1-oxopropan-2-yl)amino)pyrimidin-4-yl)pyridin-2-yl)isoxazol-5-yl)-3-hydroxy-1-methylpyrrolidin-2-one] yielded an IC50 of over 500 nM.
In the case of `C[C@H](Nc1nccc(-c2cccc(-c3cc([C@]4(O)CCN(C)C4=O)on3)n2)n1)C(=O)N1CCC(F)(F)C1` [Example 174, (R)-3-(3-(6-(2-(((S)-1-(3,3-Difluoropyrrolidin-1-yl)-1-oxopropan-2-yl)amino)pyrimidin-4-yl)pyridin-2-yl)isoxazol-5-yl)-3-hydroxy-1-methylpyrrolidin-2-one], the IC50 is reported as 50 to 500 nM.
For `C[C@@H](Nc1nccc(-c2cccc(-c3cc([C@]4(O)CCN(C)C4=O)on3)n2)n1)C(=O)N(C)C` [Example 175, (R)-2-((4-(6-(5-((R)-3-Hydroxy-1-methyl-2-oxopyrrolidin-3-yl)isoxazol-3-yl)pyridin-2-yl)pyrimidin-2-yl)amino)-N,N-dimethylpropanamide], the IC50 was over 500 nM.
`C[C@H](Nc1nccc(-c2cccc(-c3cc([C@]4(O)CCN(C)C4=O)on3)n2)n1)C(=O)N(C)C` [Example 176, (S)-2-((4-(6-(5-((R)-3-Hydroxy-1-methyl-2-oxopyrrolidin-3-yl)isoxazol-3-yl)pyridin-2-yl)pyrimidin-2-yl)amino)-N,N-dimethylpropanamide] was tested, and the IC50 was 50 to 500 nM.
`C[C@@H](Nc1nccc(-c2cccc(-c3cc([C@]4(O)CCN(C)C4=O)on3)n2)n1)C(=O)N1CC(C)(F)C1` [Example 177, (R)-3-(3-(6-(2-(((R)-1-(3-Fluoro-3-methylazetidin-1-yl)-1-oxopropan-2-yl)amino)pyrimidin-4-yl)pyridin-2-yl)isoxazol-5-yl)-3-hydroxy-1-methylpyrrolidin-2-one] gave an IC50 of over 500 nM.
`C[C@H](Nc1nccc(-c2cccc(-c3cc([C@]4(O)CCN(C)C4=O)on3)n2)n1)C(=O)N1CC(C)(F)C1` [Example 178, (R)-3-(3-(6-(2-(((S)-1-(3-Fluoro-3-methylazetidin-1-yl)-1-oxopropan-2-yl)amino)pyrimidin-4-yl)pyridin-2-yl)isoxazol-5-yl)-3-hydroxy-1-methylpyrrolidin-2-one] gave an IC50 of 50 to 500 nM.
`C[C@@H](Nc1nccc(-c2cccc(-c3cc([C@]4(O)CCN(C)C4=O)on3)n2)n1)C(=O)N1CCCCC1` [Example 179, (R)-3-Hydroxy-1-methyl-3-(3-(6-(2-(((R)-1-oxo-1-(piperidin-1-yl)propan-2-yl)amino)pyrimidin-4-yl)pyridin-2-yl)isoxazol-5-yl)pyrrolidin-2-one] gave an IC50 of 50 to 500 nM.
In the case of `C[C@H](Nc1nccc(-c2cccc(-c3cc([C@]4(O)CCN(C)C4=O)on3)n2)n1)C(=O)N1CCCCC1` [Example 180, (R)-3-Hydroxy-1-methyl-3-(3-(6-(2-(((S)-1-oxo-1-(piperidin-1-yl)propan-2-yl)amino)pyrimidin-4-yl)pyridin-2-yl)isoxazol-5-yl)pyrrolidin-2-one], the IC50 is reported as 50 to 500 nM.
With `C[C@H](Nc1nccc(-c2cccc(-c3cc([C@]4(O)CCN(C)C4=O)on3)n2)n1)C(=O)N(C)c1ccccc1` [Example 181, (S)-2-((4-(6-(5-((R)-3-Hydroxy-1-methyl-2-oxopyrrolidin-3-yl)isoxazol-3-yl)pyridin-2-yl)pyrimidin-2-yl)amino)-N-methyl-N-phenylpropanamide] the IC50 was over 500 nM.
For `C[C@H](Nc1nccc(-c2cccc(-c3cc([C@]4(O)CCN(C)C4=O)on3)n2)n1)C(N)=O` [Example 182, (S)-2-((4-(6-(5-((R)-3-Hydroxy-1-methyl-2-oxopyrrolidin-3-yl)isoxazol-3-yl)pyridin-2-yl)pyrimidin-2-yl)amino)propanamide], the IC50 was 50 to 500 nM.
With `CNC(=O)[C@H](C)Nc1nccc(-c2cccc(-c3cc([C@]4(O)CCN(C)C4=O)on3)n2)n1` [Example 183, (S)-2-((4-(6-(5-((R)-3-Hydroxy-1-methyl-2-oxopyrrolidin-3-yl)isoxazol-3-yl)pyridin-2-yl)pyrimidin-2-yl)amino)-N-methylpropanamide] the IC50 was 50 to 500 nM.
`C[C@H](Nc1nccc(-c2cccc(-c3cc([C@]4(O)CCN(C)C4=O)on3)n2)n1)C(=O)N1CCCC1` [Example 184, (R)-3-Hydroxy-1-methyl-3-(3-(6-(2-(((S)-1-oxo-1-(pyrrolidin-1-yl)propan-2-yl)amino)pyrimidin-4-yl)pyridin-2-yl)isoxazol-5-yl)pyrrolidin-2-one] was tested, and the IC50 was 50 to 500 nM.
Work on `CN1CC[C@@](O)(c2cc(-c3cccc(-c4ccnc(NCC(=O)N5CC(F)(F)C5)n4)n3)no2)C1=O` [Example 185, (R)-3-(3-(6-(2-((2-(3,3-Difluoroazetidin-1-yl)-2-oxoethyl)amino)pyrimidin-4-yl)pyridin-2-yl)isoxazol-5-yl)-3-hydroxy-1-methylpyrrolidin-2-one] yielded an IC50 of over 500 nM.
`CN1CC[C@@](O)(c2cc(-c3cccc(-c4ccnc(Nc5ccon5)n4)n3)no2)C1=O` [Example 186, (R)-3-Hydroxy-3-(3-(6-(2-(isoxazol-3-ylamino)pyrimidin-4-yl)pyridin-2-yl)isoxazol-5-yl)-1-methylpyrrolidin-2-one] showed an IC50 of 50 to 500 nM.
Molecule `Cc1c(Nc2nccc(-c3cccc(-c4cc([C@@]5(O)CCN(C)C5=O)on4)n3)n2)cnn1C1CCOCC1` [Example 187, (S)-3-Hydroxy-1-methyl-3-(3-(6-(2-((5-methyl-1-(tetrahydro-2H-pyran-4-yl)-1H-pyrazol-4-yl)amino)pyrimidin-4-yl)pyridin-2-yl)isoxazol-5-yl)pyrrolidin-2-one] has an IC50 of under 50 nM.
`Cc1ncccc1Nc1nccc(-c2cccc(-n3cc([C@]4(O)CCN(C)C4=O)nn3)n2)n1` [Example 190, (R)-3-Hydroxy-1-methyl-3-(1-(6-(2-((2-methylpyridin-3-yl)amino)pyrimidin-4-yl)pyridin-2-yl)-1H-1,2,3-triazol-4-yl)pyrrolidin-2-one] showed an IC50 of under 50 nM.
Molecule `Cc1cc(Nc2nccc(-c3cccc(-n4cc([C@]5(O)CCN(C)C5=O)nn4)n3)n2)ccn1` [Example 191, (R)-3-Hydroxy-1-methyl-3-(1-(6-(2-((2-methylpyridin-4-yl)amino)pyrimidin-4-yl)pyridin-2-yl)-1H-1,2,3-triazol-4-yl)pyrrolidin-2-one] has an IC50 of under 50 nM.
`CN1CC[C@@](O)(c2cc(-c3cccc(-c4ccnc(Nc5cc6n(n5)CC(C)(C)OC6)n4)n3)no2)C1=O` [Example 192, (R)-3-(3-(6-(2-((6,6-Dimethyl-6,7-dihydro-4H-pyrazolo[5,1-c][1,4]oxazin-2-yl)amino)pyrimidin-4-yl)pyridin-2-yl)isoxazol-5-yl)-3-hydroxy-1-methylpyrrolidin-2-one] showed an IC50 of under 50 nM.
In the case of `[2H]c1cc(-c2cccc(-n3cc([C@]4(O)CCN(C)C4=O)nn3)n2)nc(Nc2ccn(C)n2)n1` [Example 193, (R)-3-Hydroxy-1-methyl-3-(1-(6-(2-((1-methyl-1H-pyrazol-3-yl)amino)pyrimidin-4-yl-6-d)pyridin-2-yl)-1H-1,2,3-triazol-4-yl)pyrrolidin-2-one], the IC50 is reported as under 50 nM.
Work on `CN1CC[C@@](O)(c2cc(-c3cccc(-c4ccnc(Nc5cnn6c5OCCC6)n4)n3)no2)C1=O` [Example 194, (R)-3-(3-(6-(2-((6,7-Dihydro-5H-pyrazolo[5,1-b][1,3]oxazin-3-yl)amino)pyrimidin-4-yl)pyridin-2-yl)isoxazol-5-yl)-3-hydroxy-1-methylpyrrolidin-2-one] yielded an IC50 of under 50 nM.
`Cc1cc(Nc2nccc(-c3cccc(-c4cc([C@]5(O)CCN(C)C5=O)on4)n3)n2)ccn1` [Example 196, (R)-3-Hydroxy-1-methyl-3-(3-(6-(2-((2-methylpyridin-4-yl)amino)pyrimidin-4-yl)pyridin-2-yl)isoxazol-5-yl)pyrrolidin-2-one] was tested, and the IC50 was under 50 nM.
With `Cc1ncccc1Nc1nccc(-c2cccc(-c3cc([C@]4(O)CCN(C)C4=O)on3)n2)n1` [Example 197, (R)-3-Hydroxy-1-methyl-3-(3-(6-(2-((2-methylpyridin-3-yl)amino)pyrimidin-4-yl)pyridin-2-yl)isoxazol-5-yl)pyrrolidin-2-one] the IC50 was under 50 nM.
With `[2H]c1cc(-c2cccc(-c3cc([C@]4(O)CCN(C)C4=O)no3)n2)nc(Nc2ccn(C)n2)n1` [Example 200, (R)-3-Hydroxy-1-methyl-3-(5-(6-(2-((1-methyl-1H-pyrazol-3-yl)amino)pyrimidin-4-yl-6-d)pyridin-2-yl)isoxazol-3-yl)pyrrolidin-2-one] the IC50 was under 50 nM.
`CN1CC[C@@](O)(c2cc(-c3cccc(-c4ccnc(Nc5ccn(CCN)n5)n4)n3)no2)C1=O` [Example 204, (R)-3-(3-(6-(2-((1-(2-Aminoethyl)-1H-pyrazol-3-yl)amino)pyrimidin-4-yl)pyridin-2-yl)isoxazol-5-yl)-3-hydroxy-1-methylpyrrolidin-2-one] gave an IC50 of 50 to 500 nM.
With `CN1CC[C@@](O)(c2cn(-c3cccc(-c4ccnc(Nc5cn(C)nc5OCC(F)F)n4)n3)nn2)C1=O` [Example 205, (R)-3-(1-(6-(2-((3-(2,2-Difluoroethoxy)-1-methyl-1H-pyrazol-4-yl)amino)pyrimidin-4-yl)pyridin-2-yl)-1H-1,2,3-triazol-4-yl)-3-hydroxy-1-methylpyrrolidin-2-one] the IC50 was under 50 nM.
`CN1CC[C@@](O)(c2cn(-c3cccc(-c4ccnc(Nc5cnn(C)c5)n4)n3)nn2)C1=O` [Example 206, (R)-3-Hydroxy-1-methyl-3-(1-(6-(2-((1-methyl-1H-pyrazol-4-yl)amino)pyrimidin-4-yl)pyridin-2-yl)-1H-1,2,3-triazol-4-yl)pyrrolidin-2-one] was tested, and the IC50 was under 50 nM.
Work on `Cc1cc(-c2cccc(-c3cc([C@]4(O)CCN(C)C4=O)on3)n2)nc(Nc2cnn(C)c2)n1` [Example 207, (R)-3-Hydroxy-1-methyl-3-(3-(6-(6-methyl-2-((1-methyl-1H-pyrazol-4-yl)amino)pyrimidin-4-yl)pyridin-2-yl)isoxazol-5-yl)pyrrolidin-2-one] yielded an IC50 of over 500 nM.
